Laboratory results published in patent US10246421B2, “Indazolyl- and indolyl-benzamide derivatives” (ESANEX, INC., priority 2014, dated 2019).

Key:
Type in all cases: cell-based
HSP70 = experiment: A375 imaging assay, HSP70 induction; details: Homo sapiens, A-375, 24 hours treatment
Experimental: (§1) Cells of multiple human tumor lines were plated in Packard Viewplate-96, incubated overnight, and then treated with test compound for 24 hours. Following treatment, cell monolayers were fixed using standard methods and treated with antibodies targeted to the indicated Hsp90 clients. Primary antibodies were detected using a fluoroscene isothiocyanate (FITC)-conjugated anti-mouse antibody and a tetramethyl rhodamine isothiocyanate (TRITC)-conjugated anti-rabbit antibody. Deoxyribonucleic acid was stained and images were obtained using the compartmental analysis algorithm on a Cellomics Array scan 4.5 according to manufacturer instructions. Average intensities for vehicle control and treated wells were compared with test compound-treated cells to determine the 50% efficacious concentration (EC50) values. This methodology was augmented with an alternative method of immune-detection for p-Akt levels. Luminex detection of p-Akt used to directly assay the client effect, Akt, as well as the competency of the signaling cascade, as indicated by phosphorylation of S6 kinase.

K562 = experiment: Cell proliferation assay, K562; details: Homo sapiens
Experimental: (§2) A panel of cancer cell lines may be obtained from the DCTP Tumor Repository, National Cancer Institute (Frederick, Md.) or ATCC (Rockville, Md.). Cell cultures are maintained in Hyclone RPMI 1640 medium (Logan, Utah) supplemented with 10% fetal bovine serum and 20 mM HEPES buffer, final pH 7.2, at 37° C. with a 5% CO2 atmosphere. Cultures are maintained at sub-confluent densities. Human umbilical vein endothelial cells (HUVEC) are purchased from Clonetics, a division of Cambrex (Walkersville, Md.). Cultures are established from cryopreserved stocks using Clonetics EGM-2 medium supplemented with 20 mM HEPES, final pH 7.2, at 37° C. with a 5% CO2 atmosphere.
(§3) For proliferation assays, cells are seeded with the appropriate medium into 96 well plates at 1,000-2,500 cells per well, depending on the cell line, and are incubated overnight. The following day, test compound, DMSO solution (negative control), or Actinomycin D (positive control) is added to the appropriate wells as 10× concentrated stocks prepared in phosphate buffered saline. The cell plates are then incubated for an additional 2-5 days, depending on the cell line, to allow proliferation to occur. To measure cell density, 50 μL of WST-1 solution (Roche Applied Science, IN) diluted 1:5 in phosphate buffered saline is added to each well, and the cells incubated for an additional 1-5 hrs, again depending on the cell line. Optical density is determined for each well at […] using a Tecan GeniosPro plate reader (RTP, NC). The percentage of cell growth is determined by comparing the cell growth in the presence of test compounds to the cells treated with DMSO vehicle (control, 100% growth) and cells treated with Actinomycin D (10 μM, 0% growth).
(§4) Immediately after the WST-1 determination, the medium is removed from the cell lines, and the plates stored at −80° C. Using these assay plates, relative amounts of DNA in each well are determined using the Cyquant DNA assay kit from […] (Eugene, Oreg.) following the manufacturer's directions. Results for each compound treatment are compared to DMSO vehicle control (100%) and 10 μM Actinomycin D treated cells (0%).

pErk = experiment: AU565 imaging assay, pErk inhibition; details: Homo sapiens, 24 hours treatment
Experimental: as §1

A375 = experiment: Cell proliferation assay, A375; details: Homo sapiens, A-375
Experimental: as §2, §3, §4

Her2 = experiment: AU565 imaging assay, Her2 degradation; details: Homo sapiens, 24 hours treatment
Experimental: as §1

pS6 = experiment: A375 imaging assay, pS6 inhibition; details: Homo sapiens, A-375, 24 hours treatment
Experimental: as §1

NCI-H460 = experiment: Cell proliferation assay, NCI-H460; details: Homo sapiens
Experimental: as §2, §3, §4

PC-3 = experiment: Cell proliferation assay, PC-3; details: Homo sapiens
Experimental: as §2, §3, §4

Structure (SMILES) | EC50 (HSP70) | IC50 (K562) | EC50 (pErk) | IC50 (A375) | EC50 (Her2) | EC50 (pS6) | IC50 (NCI-H460; NCI-H460 (Table 2B)) | IC50 (PC-3) | IC50 (NCI-H460; NCI-H46 (Table 2A))
Cc1nn(-c2cc(F)c(C(N)=O)c(N[C@H]3CCCC[C@@H]3O)c2)c2c1CCC(C)(C)C2 [EX-015, 2-fluoro-6-((1S,2S)-2-hydroxycyclohexylamino)-4-(3,6,6-trimethyl-4,5,6,7-tetrahydro-1H-indazol-1-yl)benzamide] | 346 nM | 359 ± 42.4 nM | 820 nM | 448 ± 50.2 nM | 667 nM | 241 nM | 1910 ± 513 nM | 344 ± 10.2 nM | 
Cc1nn(-c2cc(F)c(C(N)=O)c(N[C@H]3CC[C@H](O)CC3)c2)c2c1CCC(C)(C)C2 [EX-009, 2-fluoro-6-((1r,4r)-4-hydroxycyclohexylamino)-4-(3,6,6-trimethyl-4,5,6,7-tetrahydro-1H-indazol-1-yl)benzamide] | 37.2 nM | 277 ± 81.8 nM | 101 nM | 76 ± 43.1 nM | 35.8 nM | 28.5 nM |  | 44.1 ± 6.1 nM | 167 ± 22.4 nM
Cc1nn(-c2cc(F)c(C(N)=O)c(N[C@H]3CC[C@H](O)CC3)c2)c2c1C=CC(C)(C)C2 [EX-008, 2-fluoro-6-((1r,4r)-4-hydroxycyclohexylamino)-4-(3,6,6-trimethyl-6,7-dihydro-1H-indazol-1-yl)benzamide] | 54 nM | 250 ± 77.5 nM | 112 nM | 69.7 ± 9.3 nM | 51 nM | 59.1 nM |  | 40.5 ± 7.9 nM | 142 ± 59 nM
Cc1nn(-c2cc(F)c(C(N)=O)c(NC3CCCCC3)c2)c2c1CCC(C)(C)C2 [EX-011, 2-(cyclohexylamino)-6-fluoro-4-(3,6,6-trimethyl-4,5,6,7-tetrahydro-1H-indazol-1-yl)benzamide] |  | 4280 nM |  | 9520 nM |  |  |  | 5120 nM | 8590 nM
Cc1nn(-c2cc(F)c(C(N)=O)c(N[C@H]3CC[C@H](O)CC3)c2)c2c1C(C)CC(C)(C)C2 (stereo partly drawn) [EX-016, 2-fluoro-6-((1R,4R)-4-hydroxycyclohexylamino)-4-(3,4,6,6-tetramethyl-4,5,6,7-tetrahydro-1H-indazol-1-yl)benzamide] |  | 6340 nM |  | 10200 nM |  |  |  | 6490 nM | 6550 nM
Cc1nn(-c2cc(F)c(C(N)=O)c(N[C@@H]3CCCC[C@H]3O)c2)c2c1C=CC(C)(C)C2 [EX-014, 2-fluoro-6-((1R,2R)-2-hydroxycyclohexylamino)-4-(3,6,6-trimethyl-6,7-dihydro-1H-indazol-1-yl)benzamide] | 464 nM | 363 ± 57.4 nM | 457 nM | 630 ± 106 nM | 329 nM | 115 nM | 1370 ± 325 nM | 364 ± 7.8 nM | 
CC1=CC(C)(C)Cc2c1c(C)nn2-c1cc(F)c(C(N)=O)c(N[C@H]2CC[C@H](O)CC2)c1 [EX-017, 2-fluoro-6-((1R,4R)-4-hydroxycyclohexylamino)-4-(3,4,6,6-tetramethyl-6,7-dihydro-1H-indazol-1-yl)benzamide] |  | 1690 nM |  | 2580 nM |  |  |  | 1550 nM | 2130 nM
Cc1nn(-c2cc(F)c(C(N)=O)c(NC3CCOC3)c2)c2c1C=CC(C)(C)C2 (stereo not drawn) [EX-012, 2-fluoro-6-(tetrahydrofuran-3-ylamino)-4-(3,6,6-trimethyl-6,7-dihydro-1H-indazol-1-yl)benzamide] | 45.4 nM | 172 ± 72.3 nM | 322 nM | 242 ± 192 nM | 205 nM | 73.8 nM | 1380 ± 425 nM | < 80 nM | 
Cc1nn(-c2cc(F)c(C(N)=O)c(NC3CCCCC3)c2)c2c1C=CC(C)(C)C2 [EX-010, 2-(cyclohexylamino)-6-fluoro-4-(3,6,6-trimethyl-6,7-dihydro-1H-indazol-1-yl)benzamide] |  | 48000 nM |  | 2260 nM |  |  |  | 3310 nM | 5080 nM
Cc1nn(-c2cc(F)c(C(N)=O)c(N[C@H]3CCOC3)c2)c2c1CCC(C)(C)C2 [EX-013, (S)-2-fluoro-6-(tetrahydrofuran-3-ylamino)-4-(3,6,6-trimethyl-4,5,6,7-tetrahydro-1H-indazol-1-yl)benzamide] | 77.7 nM | 242 ± 118 nM | 360 nM | 176 ± 145 nM | 329 nM | 156 nM | 3170 ± 791 nM | 160 ± 81.4 nM | 
Cc1nn(-c2cc(F)c(C(N)=O)c(N[C@H]3CCC[C@@H]3O)c2)c2c1CCC(C)(C)C2 [EX-007, 2-fluoro-6-((1S,2S)-2-hydroxycyclopentylamino)-4-(3,6,6-trimethyl-4,5,6,7-tetrahydro-1H-indazol-1-yl)benzamide] | 0.092 nM | 92.3 ± 32.7 nM | 1.5 nM | 1 ± 0.466 nM | 0.366 nM | 4.3 nM | 41.4 ± 18.4 nM | 74.1 ± 70.6 nM | 
